Each structure is given as a SMILES string. Numbers after ± are expanded uncertainties.

Data set [1] can be described thus: refractive index (Na D-line) (dimensionless); xn = mol fraction of the nth substance listed. Conditions: 101 kPa, Liquid, Standard Abbe refractometry.
The nature of data set [2]: refractive index (Na D-line) (dimensionless). To be noted: 101.33 kPa, Liquid, Standard Abbe refractometry.

As usually defined, the refractive index is the speed of light in vacuum divided by its phase velocity in the sample. On to `C1CCOC1` [tetrahydrofuran] + O, for which the refractive index in data set [1] (298.15 K, x1 = 0.01) is given as 1.3371 ± 0.0005; in data set [1] (298.15 K, x1 = 0.02), 1.3409 ± 0.0005; in data set [1] (298.15 K, x1 = 0.03), 1.3448 ± 0.0005; in data set [1] (298.15 K, x1 = 0.04), 1.348 ± 0.0005; in data set [1] (298.15 K, x1 = 0.05) it was 1.351 ± 0.0005; in data set [1] (298.15 K, x1 = 0.06), 1.354 ± 0.0005. For the same molecule, the refractive index in data set [1] (298.15 K, x1 = 1) was 1.4061 ± 0.0006; in data set [1] (303.15 K, x1 = 0.01), 1.3366 ± 0.0005; in data set [1] (303.15 K, x1 = 0.02), 1.3401 ± 0.0005; in data set [1] (303.15 K, x1 = 0.03) it was 1.3431 ± 0.0005; in data set [1] (303.15 K, x1 = 0.04), 1.347 ± 0.0005; in data set [1] (303.15 K, x1 = 0.05), 1.3496 ± 0.0005. The refractive index in data set [1] (303.15 K, x1 = 0.06) is given as 1.3521 ± 0.0005; in data set [1] (303.15 K, x1 = 1), 1.4041 ± 0.0006.

Turning to `O` [water], the refractive index in data set [2] (298.15 K) was found to be 1.3331 ± 0.0005; in data set [2] (303.15 K) it was 1.3326 ± 0.0005.
